Test results as given in ChEMBL document CHEMBL1153048, “Novel and potent inhibitors of stearoyl-CoA desaturase-1. Part I: Discovery of 3-(2-hydroxyethoxy)-4-methoxy-N-[5-(3-trifluoromethylbenzyl)thiazol-2-yl]benzamide” (Bioorg Med Chem Lett, 2009).
pIC50: −log10 of the molar value.

Experiments:
[1] = target: T1, Acyl-CoA desaturase 1 (Mus musculus, UniProt P13516); test: Inhibition of SCD1 in mouse microsomes assessed as conversion of [14C]stearate to [14C]oleate after 60 mins; parameters: species or system Microsome
T1 sequence (P13516 whole entry): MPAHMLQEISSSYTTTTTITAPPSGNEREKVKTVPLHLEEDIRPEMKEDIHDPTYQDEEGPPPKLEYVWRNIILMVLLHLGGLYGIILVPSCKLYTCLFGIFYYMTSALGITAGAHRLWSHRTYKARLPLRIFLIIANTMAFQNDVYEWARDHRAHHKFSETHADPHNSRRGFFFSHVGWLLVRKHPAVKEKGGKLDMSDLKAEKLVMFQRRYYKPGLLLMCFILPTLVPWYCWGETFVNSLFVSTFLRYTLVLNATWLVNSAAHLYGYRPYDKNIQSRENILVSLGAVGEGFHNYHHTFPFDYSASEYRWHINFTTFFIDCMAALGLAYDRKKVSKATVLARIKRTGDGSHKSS

[2] = target: T2, Stearoyl-CoA desaturase (Homo sapiens, UniProt O00767); test: Inhibition of SCD1 in human microsomes assessed as conversion of [14C]stearate to [14C]oleate after 60 mins; parameters: species or system Microsome
T2 sequence (O00767 whole entry): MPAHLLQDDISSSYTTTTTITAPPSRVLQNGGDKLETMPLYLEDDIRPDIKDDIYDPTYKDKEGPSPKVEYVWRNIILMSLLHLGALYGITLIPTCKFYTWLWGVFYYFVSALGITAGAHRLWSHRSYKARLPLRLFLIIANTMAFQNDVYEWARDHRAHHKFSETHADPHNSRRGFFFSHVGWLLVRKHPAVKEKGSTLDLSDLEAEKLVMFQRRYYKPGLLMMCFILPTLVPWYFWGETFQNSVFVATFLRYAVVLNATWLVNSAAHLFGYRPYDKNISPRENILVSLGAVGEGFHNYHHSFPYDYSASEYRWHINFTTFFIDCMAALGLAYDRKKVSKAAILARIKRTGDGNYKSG

[3] = target: T2, Stearoyl-CoA desaturase; test: Inhibition of human SCD1 expressed in HEK293A cells assessed as conversion of [14C]stearate to [14C]oleate; assay type: cell-based, HEK293-A
[4] = target: T3, Acyl-CoA 6-desaturase (Homo sapiens) (UniProt O95864); test: Inhibition of delta-6 desaturase in human microsomes assessed as conversion of [14C]linolenic acid to [14C]stearidonic acid at 10 uM; conditions: Microsome
T3 sequence (whole entry): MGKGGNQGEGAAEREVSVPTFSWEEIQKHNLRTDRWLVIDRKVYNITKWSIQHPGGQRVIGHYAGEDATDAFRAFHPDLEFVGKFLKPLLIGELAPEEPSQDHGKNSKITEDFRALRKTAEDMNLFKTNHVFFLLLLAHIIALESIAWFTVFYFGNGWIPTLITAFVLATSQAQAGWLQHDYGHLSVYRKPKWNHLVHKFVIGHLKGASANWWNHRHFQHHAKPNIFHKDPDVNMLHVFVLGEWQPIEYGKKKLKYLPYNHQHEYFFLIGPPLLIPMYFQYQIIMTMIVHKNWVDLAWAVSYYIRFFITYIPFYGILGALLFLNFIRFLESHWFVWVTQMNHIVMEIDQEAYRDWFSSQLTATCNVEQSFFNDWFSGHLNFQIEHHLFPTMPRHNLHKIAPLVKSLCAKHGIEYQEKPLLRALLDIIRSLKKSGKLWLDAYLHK

[5] = Half life in C57BL/6J mouse at 5 mg/kg; assay type: ADME, organism-based; parameters: dose 5 mg/kg; conditions: in vivo
[6] = Volume of distribution in C57BL/6J mouse at 5 mg/kg, iv measured up to 8 hrs; assay type: ADME, organism-based; parameters: dose 5 mg/kg, route intravenous; conditions: in vivo
[7] = AUC (0 to 8 hrs) in C57BL/6J mouse at 5 mg/kg, iv measured up to 8 hrs; assay type: ADME, organism-based; parameters: time < 8 hr, dose 5 mg/kg, route intravenous; conditions: plasma
[8] = tested on: Mus musculus; test: Inhibition of SCD1 in db/db mouse liver assessed as conversion of [14C]stearate to [14C]oleate administered through oral gavage; assay type: functional; conditions: read-out: ID50 (the source's name)
[9] = tested on: Mus musculus; test: AUC in C57BL/6J mouse at 5 mg/kg, iv measured up to 8 hrs; conditions: in vivo
[10] = Clearance in C57BL/6J mouse at 5 mg/kg, iv measured up to 8 hrs; assay type: ADME, organism-based; parameters: dose 5 mg/kg, route intravenous; conditions: in vivo
[11] = Cmax in C57BL/6J mouse at 20 mg/kg, po measured up to 8 hrs; assay type: ADME, organism-based; parameters: dose 20 mg/kg, route oral; conditions: in vivo
[12] = Half life in C57BL/6J mouse at 20 mg/kg, po measured up to 8 hrs; assay type: ADME, organism-based; parameters: time < 8 hr, dose 20 mg/kg, route oral; conditions: in vivo
[13] = Tmax in C57BL/6J mouse at 20 mg/kg, po measured up to 8 hrs; assay type: ADME, organism-based; parameters: dose 20 mg/kg, route oral; conditions: in vivo
[14] = AUC (0 to 8 hrs) in C57BL/6J mouse at 20 mg/kg, po measured up to 8 hrs; assay type: ADME, organism-based; parameters: time < 8 hr, dose 20 mg/kg, route oral; conditions: plasma
[15] = Oral bioavailability in C57BL/6J mouse at 20 mg/kg measured up to 8 hrs; assay type: ADME, organism-based; conditions: in vivo

| SMILES | pIC50 [1] | pIC50 [2] | pIC50 [3] | also measured |
| --- | --- | --- | --- | --- |
| COc1ccc(C(=O)Nc2ncc(Cc3cc(Cl)ccc3Cl)s2)cc1OCCO | 8.05 | 6.90 | 6.37 | – |
| COc1cc(C(=O)Nc2ncc(Cc3cccc(C(F)(F)F)c3)s2)ccc1OCC(=O)O | – | 5.36 | – | inhibition [4]: < 5% |
| COc1ccc(C(=O)Nc2ncc(Cc3cccc(C(C)(C)C)c3)s2)cc1OCCO | 5.88 | – | – | – |
| COc1ccc(C(=O)Nc2ncc(Cc3cccc(C(F)(F)F)c3)s2)cc1OCC(C)O (stereo not drawn) | 5.66 | 5.67 | – | – |
| COc1ccc(C(=O)Nc2ncc(Cc3cc(F)cc(F)c3)s2)cc1OCCO | 10.00 | 8.54 | 6.94 | – |
| COc1ccc(C(=O)Nc2ncc(Cc3cccc(C(F)(F)F)c3)s2)cc1OCCO | – | – | – | inhibition [4]: 15%; half-life [5]: 0.9 h; Vd [6]: 0.42 L/kg; AUC(0-t) at 8 h [7]: 17000 ng·h/mL; ED50 [8]: 2 mg/kg; AUC [9]: 4700 ng·h/mL |
| COc1ccc(C(=O)Nc2ncc(Cc3cccc(C(F)(F)F)c3)s2)cc1OCC(=O)O | < 5.00 | – | – | – |
| COc1ccc(C(=O)Nc2ncc(Cc3cccc(C(F)(F)F)c3)s2)cc1 | – | 5.91 | – | – |
| COc1ccc(C(=O)Nc2ncc(Cc3ccc(C)c(F)c3)s2)cc1OCCO | 7.66 | 7.09 | 6.19 | – |
| COc1ccc(C(=O)Nc2ncc(Cc3cc(C(F)(F)F)cc(C(F)(F)F)c3)s2)cc1OCCO | – | 9.70 | 7.59 | – |
| Cc1ccc(C(=O)Nc2ncc(Cc3cccc(C(F)(F)F)c3)s2)cc1C | 5.09 | – | – | – |
| COc1ccc(C(=O)Nc2ncc(Cc3cccc(C(F)(F)F)c3)s2)cc1OC | 7.12 | 6.84 | – | inhibition [4]: < 5% |
| COc1ccc(C(=O)Nc2ncc(Cc3ccc(F)c(F)c3)s2)cc1OCCO | 8.70 | 8.05 | 7.47 | – |
| COc1ccc(C(=O)Nc2ncc(Cc3ccc(Cl)c(Cl)c3)s2)cc1OCCO | 9.10 | 9.00 | 7.89 | – |
| COc1ccc(C(=O)Nc2ncc(Cc3cccc(C(F)(F)F)c3)s2)cc1OCCCO | – | < 5.00 | – | – |
| COc1cc(C(=O)Nc2ncc(Cc3cccc(C(F)(F)F)c3)s2)ccc1OCCN1CCOCC1 | 6.28 | 5.85 | – | inhibition [4]: < 5% |
| COc1cc(C(=O)Nc2ncc(Cc3cccc(C(F)(F)F)c3)s2)ccc1OCCO | 8.52 | 8.00 | – | inhibition [4]: 16%; half-life [5]: 1.4 h; clearance [10]: 3.4 mL/min/kg; Vd [6]: 0.42 L/kg; AUC(0-t) at 8 h [7]: 24000 ng·h/mL; Cmax [11]: 70 ng/mL; half-life [12]: 1.3 h; Tmax [13]: 0.5 h; AUC(0-t) at 8 h [14]: 150 ng·h/mL; bioavailability [15]: 0.2% |
| COc1ccc(/C=C/C(=O)Nc2ncc(Cc3cccc(C(F)(F)F)c3)s2)cc1 | 8.70 | 8.52 | – | inhibition [4]: 21%; half-life [5]: 0.4 h; clearance [10]: 32 mL/min/kg; Vd [6]: 0.3 L/kg; AUC(0-t) at 8 h [7]: 2700 ng·h/mL |
| COc1ccc(C(=O)Nc2ncc(Cc3cccc(Cl)c3)s2)cc1OCCO | 9.00 | 8.40 | 8.05 | Cmax [11]: 1800 ng/mL; AUC at 8 h [12]: 10000 ng·h/mL; half-life [13]: 5.4 h; Tmax [14]: 2 h; bioavailability [15]: 12%; ED50 [8]: 1 mg/kg |
| COc1ccc(C(=O)Nc2ncc(Cc3cccc(C(F)(F)F)c3)s2)cc1OCC(C)(C)O | < 5.00 | – | – | – |
| COc1ccc(C(=O)Nc2ncc(Cc3cccc(OC(F)(F)F)c3)s2)cc1OCCO | 8.52 | 8.40 | 7.23 | Cmax [11]: 1200 ng/mL; AUC at 8 h [12]: 4900 ng·h/mL; half-life [13]: 1.5 h; Tmax [14]: 1.3 h; bioavailability [15]: 8%; ED50 [8]: 8 mg/kg |
| COc1ccc(C(=O)Nc2ncc(Cc3ccc(F)c(C(F)(F)F)c3)s2)cc1OCCO | 9.70 | 9.22 | 8.10 | Cmax [11]: 550 ng/mL; AUC at 8 h [12]: 2000 ng·h/mL; half-life [13]: 1.3 h; Tmax [14]: 1.3 h; bioavailability [15]: 3%; ED50 [8]: 5 mg/kg |
| COc1ccc(C(=O)Nc2ncc(Cc3cccc(F)c3)s2)cc1OCCO | 8.70 | 7.96 | 7.47 | – |
| COc1cccc(C(=O)Nc2ncc(Cc3cccc(C(F)(F)F)c3)s2)c1 | 6.71 | 6.04 | – | inhibition [4]: 53% |
| COc1ccc(C(=O)Nc2ncc(Cc3cccc(C(F)(F)F)c3)s2)cc1OCC(O)CO (stereo not drawn) | – | < 5.00 | – | – |
| COc1ccc(C(=O)Nc2ncc(Cc3cc(Cl)cc(Cl)c3)s2)cc1OCCO | 9.15 | 9.00 | 7.89 | – |
| O=C(Nc1ncc(Cc2cccc(C(F)(F)F)c2)s1)c1ccc2ccccc2c1 | < 5.00 | – | – | – |
| COc1ccc(C(=O)Nc2ncc(Cc3ccc(F)c(Cl)c3)s2)cc1OCCO | 9.00 | 8.70 | 7.77 | Cmax [11]: 3600 ng/mL; AUC at 8 h [12]: 14000 ng·h/mL; half-life [13]: 2.1 h; Tmax [14]: 1 h; bioavailability [15]: 38%; ED50 [8]: 2 mg/kg |
| COc1ccc2cc(C(=O)Nc3ncc(Cc4cccc(C(F)(F)F)c4)s3)ccc2c1 | 8.30 | 8.05 | – | inhibition [4]: < 5% |
